Like-named read-outs stand apart in the source and are kept apart here. Marks after values point to notes of the source that are not given here.
Experiments:
Type in all cases: cell-based
[1] = system: Purpureocillium lilacinum spores; assay: Spore viability (germination rate) of Purpureocillium lilacinum spores dispersed in fluid and stored at 30° C.
Description: (§1) 3 g of Purpureocillium lilacinum pure spore powder were transferred into a formulation vessel (IKA Type DT-20 mixing vessel with dispersion tool for Ultra Turrax) using a sterile spoon. 12 mL of fluid were added into the respective formulation vessel and dispersed using ultra turrax tube drive control for 1 min at 3000 rpm; change direction after 30 sec. After this 2.8 mL were transferred in four sample bottles (Wheaton Serum vial, Type I) leaving little headspace and closed tight using crimpneck caps (Macherey—Nagel type N 13). Afterwards all sample bottles were transferred to an incubator set at 30° C. and stored for a given time.
In regular intervals a sample was retrieved from the storage location and analyzed for spore viability. For this purpose, the original samples were thoroughly homogenized. Aliquots of 0.25 g or 250 μL of each sample were transferred into 50 mL falcon tubes. The tubes were filled up to 25 g using a sterile aqueous solution containing 2% Tween 80 and homogenized by vortexing to achieve the first dilution step (1:100 dilution). This dilution was used for further dilution and spotting on agar.
(§2) For these samples, an alternative dispersion/dilution method was applied where the oil phase was stripped from the spores first: 0.25 g or 250 μL of sample are weighted into a 2 mL Eppendorf tube, and 0.5 mL of 2% Tween 80 is added, and the mixture is transferred into an Eppendorf centrifuge where it is centrifuged for 1 min at 10.000 rpm. The supernatant (=upper oily phase) is discarded by using a pipette. […] 250 μL or 0.25 g of each sample were transferred into a sterile 50 mL Falcon tube. The tubes were filled up to 25 g using a sterile aqueous solution containing 2% Tween 80 and homogenized by vortexing to achieve the first dilution step (1:100 dilution). This dilution was used for further dilution and spotting on agar.
(§3) For evaluation of spore germination rate prepare a 1:30000 dilution based on the 1:100 dilution achieved by multiple automated dilution (pipetting robot, 96 well plate). Afterwards 12×12 cm agar plates were taken and spotted with 10 times 5 μL of each sample using an automated 12-Channel pipet. Wait until liquid is soaked up by agar and transfer agar plate to an incubator and incubate at 25° C. for 17 hours. Open the plate and place it under the microscope. Randomly chose one area per spot and record the number of germinated and non-germinated spores that are within the designated field. At least 200 spores per sample need to be evaluated. If needed count more than one field per spot.

[2] = system: Beauveria bassiana spores; assay: Spore viability (germination rate) of Beauveria bassiana spores dispersed in fluid and stored at 30° C.
Description: as §1, with “1.5 g” for “3 g”, “of Beauveria bassiana” for “of Purpureocillium lilacinum”, “spoon. 13.5” for “spoon. 12”, “N 13)” for “N 13).”
(§4) In regular intervals a sample was retrieved from the storage location and analyzed for spore viability. Therefore the original samples were thoroughly homogenized. Aliquots of 0.25 g or 250 μL of each sample are transferred into 50 mL falcon tubes. The tubes were filled up to 25 g using a sterile aqueous solution containing 2% Tween 80 and homogenized by vortexing to achieve the first dilution step (1:100 dilution). This dilution was used for further dilution and spotting on agar.
as §2, with “phase is” for “phase was”, “sample are” for “sample were”, “dilution is” for “dilution was”
as §3, with “1:15000” for “1:30000”, “are” for “were”, “20°” for “25°”

[3] = system: Penicillium bilaii spores; assay: Spore viability (germination rate) of Penicillium bilaii spores dispersed in fluid and stored at 30° C.
Description: as §1, with “1.5 g” for “3 g”, “of Penicillium bilaii” for “of Purpureocillium lilacinum”, “spoon. 13.5” for “spoon. 12”, “N 13)” for “N 13).”
as §4
Not all samples mixed well or mixed at all in 2% Tween 80. For these samples, an alternative dispersion/dilution method was applied where the oil phase is stripped from the spores first: 0.25 g or 250 μL of sample are weighted into a 2 mL Eppendorf tube, and 0.5 mL of 2% Tween 80 is added, and the mixture is transferred into an Eppendorf centrifuge where it is centrifuged for 1 min at 10.000 rpm. The supernatant (=upper oily phase) is discarded by using a pipette. Afterwards 250 μL of Breakthru S 240 are added and the spores are well dispersed. 250 μL or 0.25 g of each sample are transferred into a sterile 50 mL Falcon tube. The tubes were filled up to 25 g using a sterile aqueous solution containing 2% Tween 80 and homogenized by vortexing to achieve the first dilution step (1:100 dilution). This dilution is used for further dilution and spotting on agar.
as §3, with “1:15000” for “1:30000”, “are” for “were”, “20°” for “25°”

[4] = P. lilacinum spores in fluid, day 1
[5] = P. lilacinum spores in fluid, storage at 30° C., 35-40 d
[6] = P. lilacinum spores in fluid, storage at 30° C., 87-92 d
[7] = Beauveria bassiana spores in fluid, day 1
[8] = Beauveria bassiana spores in fluid, storage at 30° C., 14 d
[9] = Beauveria bassiana spores in fluid, storage at 30° C., 35 d
[10] = Penicillium bilaii spores in fluid, 1-2 d
[11] = Penicillium bilaii spores in fluid, storage at 30° C., 41-43 d
[12] = Penicillium bilaii spores in fluid, storage at 30° C., 83-85 d
[13] = P. lilacinum spores in fluid, storage at 30° C., 12-15 d
[14] = P. lilacinum spores in fluid, storage at 30° C., 27-28 d
[15] = P. lilacinum spores in fluid, storage at 30° C., 51-55 d
[16] = P. lilacinum spores in fluid, storage at 30° C., 7 m

Compound: CCCCOC(=O)CC(CC(=O)OCCCC)(OC(C)=O)C(=O)OCCCC [Acetyltributylcitrat, O-Acetyl citric acid tributyl ester]
- spore viability [%] at day 1 [1, 4]: 98.9%
- spore viability [%] after 5-6 w (35-40 d) [1, 5]: 98.0%
- spore viability [%] after 3 m (87-92 d) [1, 6]: 87.5%
- spore viability [%] at day 1 [2, 7]: 85.5%
- spore viability [%] after 2 w (14 d) [2, 8]: 76.7%
- spore viability [%] after 5 w (35 d) [2, 9]: 58.8%
- spore viability [%] initial (1-2 d) [3, 10]: 98.4%
- spore viability [%] 6 w@30° C. (41-43 d) [3, 11]: 83.8%
- spore viability [%] 3 m@30° C. (83-85 d) [3, 12]: 60.6%

Compound: CC(C)CCCCCCOC(=O)C1CCCCC1C(=O)OCCCCCCC(C)C (stereo not drawn) [Agnique AE829, 1,2-Cyclohexane dicarboxylic acid diisononyl ester]
- spore viability [%] after 2 w (12-15 d) [1, 13]: 97.3%
- spore viability [%] after 1 m (27-28 d) [1, 14]: 96.5%
- spore viability [%] after 2 m (51-55 d) [1, 15]: 89.8%
- spore viability [%] at day 1 [2, 7]: 89.7%
- spore viability [%] after 2 w (14 d) [2, 8]: 74.9%
- spore viability [%] after 5 w (35 d) [2, 9]: 57.8%
- spore viability [%] initial (1-2 d) [3, 10]: 95.3%
- spore viability [%] 6 w@30° C. (41-43 d) [3, 11]: 89.4%
- spore viability [%] 3 m@30° C. (83-85 d) [3, 12]: 71.9%

Compound: CC(C)OC(=O)CCCCC(=O)OC(C)C [Crodamol DA, Diisopropyl adipate]
- spore viability [%] at day 1 [1, 4]: 98.2%
- spore viability [%] taken after 7 m of storage [1, 16]: 51.3* %
- spore viability [%] after 2 w (12-15 d) [1, 13]: 94.3%
- spore viability [%] after 1 m (27-28 d) [1, 14]: 95.0%
- spore viability [%] after 2 m (51-55 d) [1, 15]: 68.2%

Compound: CCCCCOC(=O)CC [Pentyl Propionate, Propionic acid Pentyl ester]
- spore viability [%] at day 1 [1, 4]: 99.1%
- spore viability [%] after 5-6 w (35-40 d) [1, 5]: 94.6%
- spore viability [%] after 3 m (87-92 d) [1, 6]: 16.1%

Compound: CCCCCC[C@@H](O)C/C=C\CCCCCCCC(=O)OC [Radia 7081, Ricinolic acid methylester]
- spore viability [%] after 1 m (27-28 d) [1]: 95.8%
- spore viability [%] after 2 m (51-55 d) [1]: 88.6%
- spore viability [%] after 2 w (12-15 d) [1]: 94.7%

Compound: CCCCCCCCCCCC(=O)OCC(CC)CCCC (stereo not drawn) [Radia 7127, 2-Ethylhexyl laurate]
- spore viability [%] at day 1 [1, 4]: 99.1%
- spore viability [%] taken after 7 m of storage [1, 16]: 40.6* %
- spore viability [%] after 2 w (12-15 d) [1, 13]: 99.0%
- spore viability [%] after 1 m (27-28 d) [1, 14]: 98.3%
- spore viability [%] after 2 m (51-55 d) [1, 15]: 88.4%
- spore viability [%] at day 1 [2, 7]: 91.3%
- spore viability [%] after 2 w (14 d) [2, 8]: 76.3%
- spore viability [%] after 5 w (35 d) [2, 9]: 68.4%
- spore viability [%] initial (1-2 d) [3, 10]: 97.1%
- spore viability [%] 6 w@30° C. (41-43 d) [3, 11]: 96%
- spore viability [%] 3 m@30° C. (83-85 d) [3, 12]: 77.9%

Compound: CCCCCCCC/C=C\CCCCCCCC(=O)OCC(CC)CCCC (stereo not drawn) [Radia 7331, 2-Ethylhexyl oleate]
- spore viability [%] after 2 w (12-15 d) [1, 13]: 97.9%
- spore viability [%] after 1 m (27-28 d) [1, 14]: 95.9%
- spore viability [%] after 2 m (51-55 d) [1, 15]: 85.9%
- spore viability [%] at day 1 [2, 7]: 91.5%
- spore viability [%] after 2 w (14 d) [2, 8]: 81.4%
- spore viability [%] after 5 w (35 d) [2, 9]: 66.3%
- spore viability [%] initial (1-2 d) [3, 10]: 97.1%
- spore viability [%] 6 w@30° C. (41-43 d) [3, 11]: 91.4%
- spore viability [%] 3 m@30° C. (83-85 d) [3, 12]: 75.7%

Compound: CCCCCCCC/C=C\CCCCCCCC(=O)OCC(CC)CCCC (stereo not drawn) [Radialube 7130, 2-Ethylhexyl oleate]
- spore viability [%] after 2 w (12-15 d) [1, 13]: 98.5%
- spore viability [%] after 1 m (27-28 d) [1, 14]: 94.3%
- spore viability [%] after 2 m (51-55 d) [1, 15]: 87.9%

Compound: Fatty acid monoglyceride diacetate [Radia 7909]
- spore viability [%] after 3 m (87-92 d) [1]: 78.5%
- spore viability [%] after 5-6 w (35-40 d) [1]: 96.5%
- spore viability [%] at day 1 [1]: 98.1%
- spore viability [%] after 2 w (14 d) [2]: 11.5%
- spore viability [%] after 5 w (35 d) [2]: 18.1%
- spore viability [%] at day 1 [2]: 75.1%
- spore viability [%] 3 m@30° C. (83-85 d) [3]: 42.0%
- spore viability [%] 6 w@30° C. (41-43 d) [3]: 75.6%
- spore viability [%] initial (1-2 d) [3]: 90.6%

Compound: Neopentylglycol dicocoate [Radialube 7302]
- spore viability [%] after 5 w (35 d) [2]: 52.7%

Compound: Sorbitan trioleate [Radiasurf 7355]
- spore viability [%] after 3 m (87-92 d) [1]: 64.1%
- spore viability [%] after 5-6 w (35-40 d) [1]: 96.4%
- spore viability [%] at day 1 [1]: 98.3%
- spore viability [%] after 2 w (14 d) [2]: 71.3%
- spore viability [%] after 5 w (35 d) [2]: 60.4%

Compound: Trimethylolpropane Tricocoate [Radialube 7359]
- spore viability [%] after 1 m (27-28 d) [1]: 87.8%
- spore viability [%] after 2 m (51-55 d) [1]: 87.5%
- spore viability [%] after 2 w (12-15 d) [1]: 60.6^# %
- spore viability [%] at day 1 [1]: 58.0^# %
- spore viability [%] taken after 7 m of storage [1]: 87.3* %

Compound: Trimethylolpropane Triisostearate [Radia 7380]
- spore viability [%] after 2 w (12-15 d) [1, 13]: 96.5%
- spore viability [%] after 1 m (27-28 d) [1, 14]: 89.3%
- spore viability [%] after 2 m (51-55 d) [1, 15]: 86.0%

Compound: Trimethylolpropane Trioleate [Radialube 7361]
- spore viability [%] after 2 w (12-15 d) [1, 13]: 97.2%
- spore viability [%] after 1 m (27-28 d) [1, 14]: 92.3%
- spore viability [%] after 2 m (51-55 d) [1, 15]: 85.4%
